Data taken from patent publication US8877731B2, “Azido nucleosides and nucleotide analogs” (Alios Biopharma, Inc., priority 2010, dated 2014).
Read-outs that look alike come from different tables or passages of the source.

How the values were obtained:
[1] = system: RSV Long strain; test: RSV CPE reduction assay; assay type: cell-based
Protocol: CPE reduction assays were performed as described by Sidwell and Huffman et al., Appl Microbiol. (1971) 22(5):797-801 with slight modifications. HEp-2 cells (ATCC) at a concentration of 6000 cell/well were infected with RSV Long strain (ATCC) at a multiplicity of infection (m.o.i.) of 0.01, and each of the test compounds were provided to duplicate wells at final concentrations starting from 100 μM using ⅓ stepwise dilutions. For each compound, two wells were set aside as uninfected, untreated cell controls (CC), and two wells per test compound received virus only as a control for virus replication (VC). […] At the end of the incubation, 20 μl of cell counting kit-8 reagent (CCK-8, Dojindo Molecular Technologies, Inc.) were added to each well. After 4 hour incubation, the absorbance was measured in each well according to manufacturer's instruction, and the 50% effective concentration (EC50) was calculated by using regression analysis, based on the mean O.D. at each concentration of compound.
(§1) Compounds of Formula (I) and Formula (II) are active in the assay as noted in Tables 2 and 3, where ‘A’ indicates an EC50<1 μM, ‘B’ indicates an EC50 of >1 μM and <10 μM, ‘C’ indicates an EC50>10 μM and <100 μM, and ‘D’ indicates an EC50>100 μM.

[2] = system: RSV A2; test: RSV RT-PCR based assay; assay type: cell-based
Protocol: RT-PCR based assays were performed in HEp-2 cells (ATCC: CCL-23) at a concentration of 20000 cell/well were plated in 96 well plates and incubated overnight. Each of the test compounds were ⅓ serially diluted and dosed to HEp-2 cells in duplicates. The highest final concentration for each compound was 100 uM. After 24 hour compound pre-incubation, RSV A2 (ATCC: VR-1540) at MOI of 0.1 was added. Two wells per compound were set aside as uninfected, untreated cell controls (CC), and four wells per test compound received virus only as a control for virus replication (VC). The assay was stopped 4 days after virus infection and conditioned media was removed for viral RNA isolation. The quantities of the RSV virus were measured by real-time PCR using a set of RSV specific primers and probe. The data was analyzed with Prism software with EC50 defined as drug concentration that reduced the viral load 50% from the viral control (VC).
as §1

[3] = human respiratory syncytial virus, 144 h, CPE assay, HEp-2 cells infected with RSV Long strain, m.o.i. 0.01, 6 days, CCK-8 readout, read-out: EC50
[4] = human respiratory syncytial virus, RT-PCR assay, HEp-2 cells, 24 hour compound pre-incubation, RSV A2 at MOI 0.1, 4 days after infection, viral load, read-out: EC50

| SMILES | EC50 [1, 3] [µM] | EC50 [2, 4] [µM] | also measured |
| --- | --- | --- | --- |
| [N-]=[N+]=N[C@]1(CO)O[C@@H](n2ccc(N)nc2=O)C(F)(F)[C@@H]1O [Compound 1, 4′-azido-2′-deoxy-2′,2′-difluorocytidine] | < 1 | < 1 |  |
| [N-]=[N+]=N[C@]1(CO)O[C@@H](n2ccc(=O)[nH]c2=O)C(F)(F)[C@@H]1O [Compound 5, 4′-azido-2′-deoxy-2′,2′-difluorouridine] | > 100 | > 100 |  |
| C[C@@H]1[C@H](n2ccc(=O)[nH]c2=O)O[C@@](CO)(N=[N+]=[N-])[C@H]1O [Compound 6, 4′-azido-2′-deoxy-2′-methylarabinouridine] | > 100 |  |  |
| [N-]=[N+]=N[C@]1(CO)O[C@@H](n2ccc(N)nc2=O)[C@H](O)[C@@H]1O [Compound 7, 4′-azidocytidine] | 10 to 100 | 1 to 10 |  |
| [N-]=[N+]=N[C@]1(CO)O[C@@H](n2ccc(=O)[nH]c2=O)[C@H](O)[C@@H]1O [Compound 8, 4′-azidouridine] | > 100 |  |  |
| C[C@@H]1[C@H](n2ccc(N)nc2=O)O[C@@](CO)(N=[N+]=[N-])[C@H]1O [Compound 9, 4′-azido-2′-deoxy-2′-methylarabinocytidine] | > 100 |  |  |
| [N-]=[N+]=N[C@]1(CO)O[C@@H](n2ccc(N)nc2=O)[C@@H](O)[C@@H]1O [Compound 11, 4′-azidoarabinocytidine] | < 1 | < 1 |  |
| [N-]=[N+]=N[C@]1(CO)O[C@@H](n2ccc(=O)[nH]c2=O)[C@@H](O)[C@@H]1O [Compound 12, 4′-azidoarabinouridine] | > 100 | > 100 |  |
| CC(C)OC(=O)[C@H](C)NP(=S)(OC[C@@]1(N=[N+]=[N-])O[C@@H](n2ccc(=O)[nH]c2=O)[C@H](O)[C@@H]1O)Oc1ccccc1 (stereo partly drawn) [Compound 15, 4′-azidouridine 5′-(O-phenyl-N—(S)-1-(isopropoxycarbonyl)eth-1-yl)thiophosphoramidate] |  |  | EC50 ([1]; human respiratory syncytial virus, HEp-2, 144 h): < 1 µM; EC50 ([2]; human respiratory syncytial virus, HEp-2): < 1 µM |
| [N-]=[N+]=N[C@]1(CO)O[C@@H](n2ccc(=O)[nH]c2=O)[C@H](F)[C@@H]1O [Compound 17, 4′-azido-2′-deoxy-2′-fluorouridine] | > 100 | > 100 |  |
| CC(C)OC(=O)[C@H](C)NP(=O)(OC[C@@]1(N=[N+]=[N-])O[C@@H](n2ccc(N)nc2=O)C(F)(F)[C@@H]1O)Oc1ccccc1 (stereo partly drawn) [Compound 18, 4′-azido-2′-deoxy-2′,2′-difluorocytidine 5′-(O-phenyl-N—(S)-1-(isopropoxycarbonyl)ethyl)phosphoramidate] | 1 to 10 | 1 to 10 |  |
| CC(C)OC(=O)[C@H](C)NP(=O)(OC[C@@]1(N=[N+]=[N-])O[C@@H](n2ccc(=O)[nH]c2=O)C(F)(F)[C@@H]1O)Oc1ccccc1 (stereo partly drawn) [Compound 19, 4′-azido-2′-deoxy-2′,2′-difluorouridine 5′-(O-phenyl-N—(S)-1-(isopropoxycarbonyl)ethyl)phosphoramidate] | > 100 | > 100 |  |
| [N-]=[N+]=N[C@]1(CO)O[C@@H](n2ccc(=O)[nH]c2=O)[C@@H](F)[C@@H]1O [Compound 20, 4′-azido-2′-deoxy-2′-fluoroarabinouridine] | > 100 | > 100 |  |
| CC(C)OC(=O)[C@H](C)NP(=O)(OC[C@@]1(N=[N+]=[N-])O[C@@H](n2ccc(=O)[nH]c2=O)[C@H](O)[C@@H]1O)Oc1ccccc1 (stereo partly drawn) [Compound 21, 4′-azidouridine 5′-(O-phenyl-N—(S)-1-(isopropoxycarbonyl)eth-1-yl)phosphoramidate] | < 1 | < 1 |  |
| CC(C)OC(=O)[C@H](C)NP(=O)(OC[C@@]1(N=[N+]=[N-])O[C@@H](n2ccc(N)nc2=O)[C@H](O)[C@@H]1O)Oc1ccccc1 (stereo partly drawn) [Compound 22, 4′-azidocytidine 5′-(O-phenyl-N—(S)-1-(isopropoxycarbonyl)ethyl)phosphoramidate] | < 1 | < 1 |  |
| CC(C)OC(=O)[C@H](C)NP(=O)(OC[C@@]1(N=[N+]=[N-])O[C@@H](n2ccc(N)nc2=O)[C@H](F)[C@@H]1O)Oc1ccccc1 (stereo partly drawn) [Compound 23, 4′-azido-2′-deoxy-2′-fluorocytidine 5′-(O-phenyl-N—(S)-1-(isopropoxycarbonyl)ethyl)phosphoramidate] | 1 to 10 | 1 to 10 |  |
| CC(C)OC(=O)[C@H](C)NP(=O)(OC[C@@]1(N=[N+]=[N-])O[C@@H](n2ccc(=O)[nH]c2=O)[C@H](F)[C@@H]1O)Oc1ccccc1 (stereo partly drawn) [Compound 24, 4′-azido-2′-deoxy-2′-fluorouridine 5′-(O-phenyl-N—(S)-1-(isopropoxycarbonyl)ethyl)phosphoramidate] | > 100 | > 100 |  |
| [N-]=[N+]=N[C@]1(CO)O[C@@H](n2cnc3nc(N)[nH]c(=O)c32)[C@H](O)[C@@H]1O [Compound 25, 2-amino-7-(4-azido-β-D-ribofuranos-1-yl)-1H-purin-6(7H)-one] | > 100 | > 100 |  |
| CC(C)OC(=O)[C@H](C)NP(=O)(OC[C@@]1(N=[N+]=[N-])O[C@@H](n2ccc(=O)[nH]c2=O)[C@@H](F)[C@@H]1O)Oc1ccccc1 (stereo partly drawn) [Compound 26, 4′-azido-2′-deoxy-2′-fluorouarabinoridine 5′-(O-phenyl-N—(S)-1-(isopropoxycarbonyl)ethyl)phosphoramidate] | > 100 | > 100 |  |
| C[C@H](NP(=O)(OC[C@@]1(N=[N+]=[N-])O[C@@H](n2cnc3c(=O)[nH]c(N)nc32)[C@H](O)[C@@H]1O)Oc1ccccc1)C(=O)OC1CCCCC1 (stereo partly drawn) [Compound 29, 4′-azidoguanosine 5′-[O-phenyl-N—((S)-cyclohexoxycarbonyleth-1-yl))phosphoramidate] | < 1 | < 1 |  |
| C[C@H](NP(=O)(OCC1(N=[N+]=[N-])OC(n2cnc3c(=O)[nH]c(N)nc32)C(F)C1O)Oc1ccccc1)C(=O)OC1CCCCC1 (stereo partly drawn) [Compound 31, 4′-azido-2′-deoxy-2′-fluoroguanosine 5′-(O-phenyl-N—((S)-cyclohexoxycarbonyleth-1-yl))phosphoramidate] |  |  | EC50 ([1]; CPE assay, HEp-2 cells infected with RSV Long strain, m.o.i. 0.01, 6 days, CCK-8 readout, read-out: EC50): < 1 µM; EC50 ([2]; RT-PCR assay, HEp-2 cells, 24 hour compound pre-incubation, RSV A2 at MOI 0.1, 4 days after infection, viral load, read-out: EC50): < 1 µM |
| [N-]=[N+]=N[C@@]12COP(=O)(O)O[C@H]1[C@@H](F)[C@H](n1ccc(=O)[nH]c1=O)O2 [Compound 32, 4′-azido-2′-deoxy-2′-fluorouridine 3′,5′-cyclic phosphate] | > 100 |  |  |
| CC(C)OC(=O)[C@H](C)NP(=O)(N[C@@H](C)C(=O)OC(C)C)OC[C@@]1(N=[N+]=[N-])O[C@@H](n2ccc(N)nc2=O)C(F)(F)[C@@H]1O [Compound 33, 4′-azido-2′-deoxy-2′-difluorocytidine 5′-(N,N′-bis((S)-1-(isopropoxycarbonyl)ethyl))phosphordiamidate] | < 1 | < 1 |  |
| CC(C)OC(=O)[C@H](C)NP(=O)(OC[C@@]1(N=[N+]=[N-])O[C@@H](n2ccc(N)nc2=O)[C@@H](O)[C@@H]1O)Oc1ccccc1 (stereo partly drawn) [Compound 34, 4′-azidoarabinocytidine 5′-(O-phenyl-N—(S)-1-(isopropoxycarbonyl)ethyl)phosphoramidate] | > 100 | > 100 |  |
| CC(C)OC(=O)[C@H](C)NP(=O)(OC[C@@]1(N=[N+]=[N-])O[C@@H](n2ccc(=O)[nH]c2=O)[C@@H](O)[C@@H]1O)Oc1ccccc1 (stereo partly drawn) [Compound 35, 4′-azidoarabinouridine 5′-(O-phenyl-N—(S)-1-(isopropoxycarbonyl)ethyl)phosphoramidate] | < 1 | < 1 |  |
| CC(C)OC(=O)[C@H](C)NP(=O)(OC[C@@]1(N=[N+]=[N-])O[C@@H](n2ccc(=O)[nH]c2=O)[C@@H](C)[C@@H]1O)Oc1ccccc1 (stereo partly drawn) [Compound 36, 4′-azido-2′-deoxy-2′-methylarabinouridine 5′-(O-phenyl-N—(S)-1-(isopropoxycarbonyl)ethyl)phosphoramidate] | > 100 | > 100 |  |
| CC(C)OC(=O)[C@H](C)NP(=O)(OC[C@@]1(N=[N+]=[N-])O[C@@H](n2cnc3c(N)ncnc32)[C@H](F)[C@@H]1O)Oc1ccccc1 (stereo partly drawn) [Compound 37, 4′-azido-2′-deoxy-2′-fluoroadenosine 5′-(O-phenyl-N—(S)-1-(isopropoxycarbonyl)ethyl)phosphoramidate] | 1 to 10 | 1 to 10 |  |
| [N-]=[N+]=N[C@]1(CO)O[C@@H](n2ccc(N)nc2=O)[C@H](Cl)[C@@H]1O [Compound 53, 4′-azido-2′-chloro-2′-deoxycytidine] |  | 1 to 10 |  |
